# Measurements: patent US9986723B2, “Screen and use of therapeutics for pancreatic ductal adenocarcinoma” (The Board of Regents of the University of Texas System, priority 2014, dated 2018)
# Assays:
# AsPC1 tumors = assay: Low dose warfarin in drinking water, orthotopic human tumor xenograft; format: in vivo, mouse; conditions: warfarin 1 mg/L drinking water
# Protocol: (§1) (FIG. 23A) Primary tumor burden after therapy with warfarin. Therapy was initiated when implanted tumors were visible by ultrasound (˜10 mm^3) and consisted of control (normal drinking water) or warfarin, administered in the drinking water at 0.5 mg/L (immunocompetent mice: Pan02 (n=4, control; 3, warfarin), KIC (n=10, control; 8, warfarin)) or 1 mg/L (Panc-1 (n=10, control; 8, warfarin), AsPC-1 (n=8, control; 6, warfarin), Capan-1 (n=10, control; 7, warfarin)) and continued for 2-4 weeks until control mice were moribund. Therapy in KIC mice was initiated at 3 weeks of age and continued for 4 weeks. (FIG. 23B) Metastases were determined grossly upon sacrifice and confirmed by histological evaluation of the liver. […] Incidence of metastasis is also indicated. […] Tumor volume determined by serial ultrasound. […] Therapy with mAb 10C9 (250 μg 2×/week) was initiated when tumors were established as above and persisted for 4 weeks. […] Error bars indicate s.e.m.
# (§2) Animal studies. All animals were housed in a pathogen-free facility with 24-hour access to food and water. Experiments were approved by, and conducted in accordance with, an IACUC approved protocol at UT Southwestern. LSL-Kras^G12D; Cdkn2a^lox/lox; p48^Cre (KIC) mice were generated as previously described (Ostapoff et al., 2014). Four- to 6-week-old female NOD/SCID and C57/B16 mice were obtained from an on campus supplier. A total of 1×10^6 AsPc-1, Panc-1, Mia Paca2, Capan-1, C5LM2, Mia shLuc and Mia shAxl or 5×10^5 Pan02 cells, were injected orthotopically as described (Ostapoff et al., 2014). Mice with established tumors, as determined by sonography were randomized to receive normal drinking water or water containing 1 mg/L (˜3.0 μM) warfarin for experiments in immunocompromised mice and 0.5 mg/L (˜1.5 μM) in experiments in immunocompetent animals with or without gemcitabine 25 mg/kg twice weekly depending on experimental design.
# Capan-1 tumors = assay: as above; format: in vivo, mouse
# Protocol: as §1, §2
# Panc-1 tumors = assay: as above; format: in vivo, mouse
# Protocol: as §1
# (§3) (FIG. 24A) HEK293 cells engineered to stably express recombinant Gas6 were grown in the presence of Vitamin K or Vitamin K+warfarin. Gas6 levels and γ-carboxylation were assayed by immunoblotting conditioned media. Conditioned media from untransfected HEK293 cells was used as a negative control. (FIG. 24B) Panc1 cells were grown overnight in media with 1% serum with no additions (NT), warfarin (2 μM) or BGB324 (2 μM). Lysates were probed for total Axl (tAxl) and phosphorylated Axl (pAxl). (FIG. 24C) Panc1 cells were grown in the presence of control media, Vitamin K, warfarin or warfarin+Vitamin K. The level of phosphorylated Axl (pAXL, red) was determined by immunofluorescence. (FIG. 24D) Panc1 cells were grown overnight in media with 1% serum with no additions (control), warfarin (1 μM), Gas6 (1.3 nM) or Gas6+warfarin. Lysates were probed for phosphorylated Akt (pAkt) and actin. (FIG. 24E) Lysates from Panc1 tumors harvested from mice treated with control or warfarin were probed for expression of tAxl, pAxl, actin, pAKT, tAKT, and cleaved Parp. (FIG. 24F) The effect of warfarin on cell migration was assessed by a ‘scratch’ assay. Monolayers of the indicted cells were wounded with a pipet tip. The cells were incubated in media containing 2% serum+/−warfarin (2 μM) or media containing 2% serum+Gas6 (1.3 nM)+/−warfarin.
# (§4) FIGS. 26A-C. […] (FIG. 26A) the expression level of pAxl, Zeb1 and nuclear β-catenin in Panc1 cells in vitro was measured by immunofluorescence under normal culture conditions or after growth on collagen matrix and treatment with TGF-β (20 ng/ml) to induce epithelial to mesenchymal transition, with or without warfarin (2 μM). p-Axl was normalized to total Axl area. (FIG. 26B) Panc1 cells were treated with either SFM, recombinant Gas 6 (100 ng/ml) or Gas6 following pretreatment with 10C9 (mAb anti-Axl). Transition to a mesenchymal phenotype was characterized by changes in vimentin and nuclear Zeb1 expression determined by immunofluoresence. […] (FIG. 26C) Paraffin embedded sections of Panc-1 tumors were analyzed by immunofluorescence for markers of EMT.
# Pan02 tumors = assay: Low dose warfarin in drinking water, syngenic orthotopic model; format: in vivo, mouse; conditions: warfarin 0.5 mg/L drinking water
# Protocol: as §1
# Animal studies. […] Mice with established tumors, as determined by sonography were randomized to receive normal drinking water or water containing 1 mg/L (˜3.0 μM) warfarin for experiments in immunocompromised mice and 0.5 mg/L (˜1.5 μM) in experiments in immunocompetent animals with or without gemcitabine 25 mg/kg twice weekly depending on experimental design.
# ASPC = assay: MTS cell growth assay, gemcitabine +/- warfarin; format: cell-based, human; conditions: warfarin 2 μM
# Protocol: (§5) Cytotoxicity and augmentation of chemotherapy response was measured by MTS assays conducted in 96-well plates; cells were plated on day 0 and drug was added on day 1 in 4-fold dilutions. Maximum concentration of 2,000 nmol/L for gemcitabine was used with or without the addition of a constant concentration of 2 μM warfarin or 1.1 μM 10C9. Relative cell number was determined by adding MTS (Promega; final concentration […]), incubating for 1 to 3 hours at 37° C., and reading absorbance. Drug sensitivity curves and IC50s were calculated using in-house software.
# Panc1 = assay: MTS cell growth assay, gemcitabine +/- warfarin; format: cell-based, human; conditions: warfarin 2 μM
# Protocol: as §5
# Panc-1 cells = assay: In vitro EMT assay (TGF-β and collagen); format: cell-based, human; conditions: warfarin 2 μM
# Protocol: as §4
# Axl = target: T1, Axl (Homo sapiens, UniProt P30530); assay: Phosphorylated Axl in Panc-1 cells (western blot, immunofluorescence); format: cell-based; conditions: overnight, 1% serum, 2 μM
# T1 construct: Lysates were probed for total Axl (tAxl) and phosphorylated Axl (pAxl); endogenous in cells; host or cells: Panc-1
# T1 sequence (P30530 26-894): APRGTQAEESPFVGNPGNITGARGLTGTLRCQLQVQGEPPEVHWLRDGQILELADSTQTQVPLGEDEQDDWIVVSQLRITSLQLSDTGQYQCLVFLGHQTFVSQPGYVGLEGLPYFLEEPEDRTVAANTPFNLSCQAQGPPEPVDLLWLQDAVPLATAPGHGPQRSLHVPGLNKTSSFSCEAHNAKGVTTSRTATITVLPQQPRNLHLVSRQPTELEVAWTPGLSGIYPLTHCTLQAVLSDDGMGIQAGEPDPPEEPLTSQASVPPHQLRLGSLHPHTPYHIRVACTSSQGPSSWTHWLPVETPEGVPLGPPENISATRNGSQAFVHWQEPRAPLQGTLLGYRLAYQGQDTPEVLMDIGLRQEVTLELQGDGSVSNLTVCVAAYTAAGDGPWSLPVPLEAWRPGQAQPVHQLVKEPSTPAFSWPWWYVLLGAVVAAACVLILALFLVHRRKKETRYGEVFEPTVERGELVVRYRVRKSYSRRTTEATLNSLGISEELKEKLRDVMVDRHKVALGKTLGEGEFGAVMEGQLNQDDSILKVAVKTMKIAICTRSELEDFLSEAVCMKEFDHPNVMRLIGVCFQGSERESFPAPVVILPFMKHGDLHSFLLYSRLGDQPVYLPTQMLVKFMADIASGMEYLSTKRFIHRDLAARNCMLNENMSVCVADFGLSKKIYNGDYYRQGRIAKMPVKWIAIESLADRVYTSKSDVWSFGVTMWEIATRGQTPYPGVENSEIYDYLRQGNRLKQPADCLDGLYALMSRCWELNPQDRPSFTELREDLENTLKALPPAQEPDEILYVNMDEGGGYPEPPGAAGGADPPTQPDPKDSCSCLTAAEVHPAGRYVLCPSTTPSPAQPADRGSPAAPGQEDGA
# Protocol: as §3
# [1] = tumor lysates, low dose warfarin
# [2] = tumor sections, low dose warfarin
smiles,measurement,setting,value
CC(=O)CC(c1ccccc1)c1c(O)c2ccccc2oc1=O (racemic) [Warfarin],primary tumor growth,AsPC1 tumors,little effect
same,response of tumors to warfarin,Capan-1 tumors; no detectable Axl expression,nonresponsive
same,primary tumor growth,Capan-1 tumors; warfarin 1 mg/L drinking water,little effect
same,intratumoral microvessel density,"Panc-1 tumors; Endomucin, low dose warfarin",reduced
same,expression of vimentin and E-cadherin in tumors,"Panc-1 tumors; immunofluorescence, low dose warfarin",reduced expression of vimentin and elevated the expression of E-cadherin
same,level of cleaved Parp,Panc-1 tumors; [1],increased
same,level of pAxl and pAkt in tumors,Panc-1 tumors; [1],substantially suppressed
same,cleaved caspase 3 and tumor necrosis,Panc-1 tumors; [2],elevated
same,expression of phosphorylated histone H3 (proliferation),Panc-1 tumors; [2],decreased
same,primary tumor growth,Panc-1 tumors; warfarin 1 mg/L drinking water,little effect
same,primary tumor growth,Pan02 tumors,reduced primary tumor growth
same,Fold Reduction of gemcitabine IC50 in presence of warfarin,ASPC,8.4 fold
same,Fold Reduction of gemcitabine IC50 in presence of warfarin,Panc1,211 fold
same,Zeb1 and nuclear β-catenin levels,"Panc-1 cells; TGF-β 20 ng/ml, collagen",significantly reduced
same,TGFβ and collagen I enhanced Axl expression and activation,Panc-1 cells,blocked
same,phosphorylation of Axl (pAxl),Axl,inhibited basal pAxl levels
